{"source": "paper PMC10518255", "about": "“A first-in-class pan-lysyl oxidase inhibitor impairs stromal remodeling and enhances gemcitabine response and survival in pancreatic cancer” (Nature Cancer, 2023)", "key": {"Plasma stability": {"test": "Plasma stability", "assay_type": "in vitro ADME", "conditions": "In vitro (human)"}, "KPC CCs": {"tested_on": "KPC CCs", "test": "Cancer cell invasion into CAF-remodeled 3D organotypic matrices", "assay_type": "cell-based, mouse", "conditions": "for number of cancer cells invaded per FOV: single replicates", "procedure": "Fig. 3 PXS-5505 inhibition of CAF remodeling in vitro. a, Quantitative PCR with reverse transcription (qRT–PCR) showing in vitro comparison of KPC CAF relative expression of lysyl oxidase family members compared to KPC CCs from the same model (n = 3 biologically independent samples). Comparisons were determined by 2^–∆∆Ct approach. b, Representative images of 3D organotypic matrix contraction assay at days 2, 6 and 12 in the absence (gray) or presence (pink) of PXS-5505 (30 µM). Scale bars, 5 mm. Comparison of measured area of matrices between control and PXS-5505 treatment groups over time (n = 3 technical samples examined over three biologically independent samples). Data are mean ± s.d. c, Concentration of immature divalent DHLNL and mature trivalent Pyr collagen crosslinks determined by LC–MS from control and PXS-5505-treated organotypic matrices at day 12 (n = 3 technical samples examined over two biologically independent samples). Data are mean ± s.d. […] Data are presented as mean ± s.d. […] Comparison of number of CCs invaded per field of view (FOV) as determined by H&E and PanCK staining (nine images taken from three technical samples from each of three biologically independent contracted matrices), normalized to control. Data are mean ± s.d. Scale bars, 100 μm. […] Source data\nFollowing remodeling, 4 × 10^4 KPC CCs were seeded on top of the remodeled matrix in DMEM supplemented with 10% FBS and 1% penicillin–streptomycin and allowed to grow to confluence for 4 days, after which matrices were transferred to an air–liquid interface and CCs allowed to invade into the organotypic matrices for 12 days (Extended Data Fig. 4f). PXS-5505 (30 μM) or PXS-5120 (100 nM) was added to medium at 48-h intervals for the duration. At the end point, matrices were fixed in 10% formalin and processed for histological analysis by H&E and panCK staining. The invasive index was measured in three representative areas per matrix and the number of invaded cells per mm^2 was calculated. No statistical methods were used to predetermine sample sizes but our sample sizes are similar to those reported in previous publications[36],[39].\nExtended Data Fig. 4 PXS-5505 inhibits collagen cross-linking by PDAC CAFs in vitro resulting in decreased cancer cell invasion. a. Schematic of organotypic matrix remodeling assay whereby CAFs are embedded into a 3D collagen matrix and growth media supplemented with or without PXS-5505 to inhibit lysyl oxidase family activity b. Chemical structures of lysyl oxidase family catalyzed hydroxyallysine or allysine residues and the subsequent divalent and trivalent bonds that are formed that can be quantified by mass spectrometry. c. Representative images of 3D organotypic matrix contraction by human pancreatic cancer CAFs at days 2, 6 and 12 in the absence (gray) and presence (pink) of PXS-5505 (30 µM). Scale bars = 5 mm. […] Data presented as mean values +/− SD. d. […] Data presented as mean values +/− SD. Relative fold expression of LOXL family members compared to LOX were determined by 2^–∆∆Ct approach. f. […] Comparison of measured area of matrices between control, PXS-5120 and PXS-5505 treatment groups (n = 3) over time. i. […] Representative images of invasion of KPC cancer cells into a contracted organotypic matrix as determined by H&E staining. […]"}, "[1]": {"tested_on": "lysyl oxidase family members in KPC CCs", "test": "qRT-PCR of lysyl oxidase family members after treatment (Extended Data Figs. 2d, 3h)", "assay_type": "cell-based, mouse", "parameters": "qRT-PCR LOX (Ct) / qRT-PCR LOX ΔCt / qRT-PCR LOX ΔΔCt KPC CC / qRT-PCR LOXL1 ΔCt / qRT-PCR LOXL1 ΔΔCt KPC CC / qRT-PCR LOXL2 ΔCt / qRT-PCR LOXL2 ΔΔCt KPC CC / qRT-PCR LOXL3 ΔCt / qRT-PCR LOXL3 ΔΔCt KPC CC / qRT-PCR LOXL4 ΔCt / qRT-PCR LOXL4 ΔΔCt KPC CC: dose or concentration left out as unconfirmed", "procedure": "A total of 5 × 10^5 KPC CCs or CAFs were seeded and collected after incubation in 21% O2/5% CO2 for 72 h. RNA was isolated using the RNeasy mini kit (QIAGEN) according to the manufacturer’s instructions. Then, 1 μg of RNA was reverse transcribed using the Transcriptor First Strand cDNA Synthesis kit (Roche LifeScience) with anchored-oligo(dT)18 primers or the QuantiTect Reverse Transcription kit (QIAGEN). Real-time PCR was performed using the Roche LightCycler480 (Roche LifeScience) or QuantStudio 7 (Thermo Fisher). The following probe sets from Applied Biosystems, were used: LOX, Mm00495386; LOXL1, Mm01145738; LOXL2, Mm00804740; LOXL3, Mm01184867; LOXL4, Mm00446385; and GAPDH, Mm99999915. Primers and Roche Universal Probe Library probes used for RT–qPCR are described in Supplementary Table 4. Relative mRNA expression levels for each transcript of interest were normalized to GAPDH or ACTB (as indicated) and quantified using the comparative double ΔCt method (unless stated otherwise) for each biological replicate.\nExtended Data Fig. 2 Characterization of cells derived from the KPC autochthonous model. a. Immunofluorescence staining of KPC CCs and KPC CAFs for the pancreatic epithelial cell marker CDH1 (green), DAPI (blue) and for the CAF marker α-SMA (yellow), DAPI (blue). Representative images from n = 3 biological independent samples. Scale bar = 30 μm. b. RNAseq reads for CAF and epithelial cell makers in KPC CAFs n = 3 biological independent samples. […] Data is presented as mean values ± SEM. […] Data presented as mean values +/− SD. […] Source data\nData presented as mean values +/− SD. f. […] Data presented as mean values +/− SD. […] Data presented as mean values +/− SD. […] Data presented as mean values +/− SD. Ordinary one-way ANOVA for multiple comparison test performed. Source data"}, "[2]": {"conditions": "KPC CC, 48 hour treatment, 30 M PXS-5505, replicates"}, "[3]": {"conditions": "KPC CC, 48 hour treatment, PXS-5505, replicates"}, "[4]": {"conditions": "KPC CC, 48 hour treatment, PXS-5505, vs GAPDH, replicates"}, "[5]": {"conditions": "KPC CCs, 50 nM gemcitabine, 48 hours, per replicate"}, "[6]": {"conditions": "KPC CCs, 50 nM gemcitabine, 48 hours, vs GAPDH, per replicate"}}, "note": "“And” between values parts separate entries of the source, which are not always exact repeats. Equal entries are not always repeated.", "data": [{"smiles": "Cl.Cl.NC/C=C(\\F)CS(=O)(=O)c1cccc2cccnc12.O", "note": "[PXS-5505, (Z)-3-fluoro-4-(quinolin-8-ylsulfonyl)but-2-en-1-amine dihydrochloride monohydrate]", "values": [{"measurement": "remaining at 1 h", "setting": "Plasma stability", "result": 97, "unit": "%"}, {"measurement": "depth of invasion", "setting": "KPC CCs; PXS-5505 30 µM", "result": "no significant difference in depth of invasion"}, {"measurement": "invasion into the organotypic matrices by CCs", "setting": "KPC CCs; PXS-5505 30 µM", "result": "decrease in invasion"}, {"measurement": "number of cancer cells invaded per FOV", "setting": "KPC CCs; determined by H&E", "result": "0.4375 and 0.5681 and 0.5386 and 0.8338 and 0.9078 and 0.6013 and 0.6222 and 0.3197 and 1.014"}, {"measurement": "number of cancer cells invaded per FOV", "setting": "KPC CCs; determined by PanCK", "result": "0.6309 and 0.4054 and 0.3571 and 0.6771 and 0.6115 and 1.118 and 0.7087 and 0.8827 and 0.7763"}, {"measurement": "qRT-PCR LOXL1 (Ct)", "setting": "[1]; [2]", "result": "32.0868 and 30.4856 and 33.7318"}, {"measurement": "qRT-PCR LOXL2 (Ct)", "setting": "[1]; [2]", "result": "25.1478 and 23.1006 and 27.5044"}, {"measurement": "qRT-PCR LOXL3 (Ct)", "setting": "[1]; [2]", "result": "25.6118 and 24.0525 and 29.0502"}, {"measurement": "qRT-PCR LOXL4 (Ct)", "setting": "[1]; [2]", "result": "26.1005 and 25.1765 and 30.4751"}, {"measurement": "qRT-PCR LOX (Ct)", "setting": "[1]; [3]", "result": "32.5405 and 35.0722 and 35.237"}, {"measurement": "qRT-PCR LOX ΔΔCt KPC CC", "setting": "[1]; [3]", "result": "3.619 and 0.48 and 10.8682"}, {"measurement": "qRT-PCR LOXL1 ΔΔCt KPC CC", "setting": "[1]; [3]", "result": "0.8362 and 0.4014 and 1.074"}, {"measurement": "qRT-PCR LOXL2 ΔΔCt KPC CC", "setting": "[1]; [3]", "result": "0.7412 and 0.4847 and 0.5812"}, {"measurement": "qRT-PCR LOXL3 ΔΔCt KPC CC", "setting": "[1]; [3]", "result": "2.035 and 0.9488 and 0.7538"}, {"measurement": "qRT-PCR LOX ΔCt", "setting": "[1]; [4]", "result": "15.5819 and 18.4964 and 13.9954"}, {"measurement": "qRT-PCR LOXL1 ΔCt", "setting": "[1]; [4]", "result": "12.8511 and 13.9099 and 12.4902"}, {"measurement": "qRT-PCR LOXL2 ΔCt", "setting": "[1]; [4]", "result": "5.9121 and 6.525 and 6.263"}, {"measurement": "qRT-PCR LOXL3 ΔCt", "setting": "[1]; [4]", "result": "6.376 and 7.477 and 7.8086"}, {"measurement": "qRT-PCR LOXL4 ΔΔCt KPC CC", "setting": "[1]; KPC CC, 48 hour treatment, replicates", "result": "3.255 and 0.9772 and 0.6302"}, {"measurement": "qRT-PCR LOXL4 ΔCt", "setting": "[1]; KPC CC, 48 hour treatment, vs GAPDH, replicates", "result": "6.8648 and 8.601 and 9.233"}, {"measurement": "transcription of lysyl oxidase family members", "setting": "[1]; KPC CCs, PXS-5505 up to 300 µM", "result": "does not significantly alter transcription"}]}, {"smiles": "Nc1ccn([C@@H]2O[C@H](CO)[C@@H](O)C2(F)F)c(=O)n1", "note": "[Gem, gemcitabine]", "values": [{"measurement": "LOX ΔΔCt CC", "setting": "[1]; [5]", "result": "0.5966 and 0.4518 and 0.8445"}, {"measurement": "LOXL1 ΔΔCt CC", "setting": "[1]; [5]", "result": "2.011 and 0.7673 and 0.4707"}, {"measurement": "LOXL2 ΔΔCt CC", "setting": "[1]; [5]", "result": "1.535 and 1.563 and 1.2"}, {"measurement": "LOXL3 ΔΔCt CC", "setting": "[1]; [5]", "result": "1.643 and 1.594 and 1.375"}, {"measurement": "LOXL4 ΔΔCt CC", "setting": "[1]; [5]", "result": "0.7511 and 0.9095 and 0.7486"}, {"measurement": "LOX ΔCt", "setting": "[1]; [6]", "result": "14.7188 and 15.1199 and 14.2176"}, {"measurement": "LOXL1 ΔCt", "setting": "[1]; [6]", "result": "12.5081 and 13.8984 and 14.6034"}, {"measurement": "LOXL2 ΔCt", "setting": "[1]; [6]", "result": "4.459 and 4.433 and 4.815"}, {"measurement": "LOXL3 ΔCt", "setting": "[1]; [6]", "result": "5.8941 and 5.937 and 6.151"}, {"measurement": "LOXL4 ΔCt", "setting": "[1]; [6]", "result": "8.9744 and 8.6983 and 8.979"}, {"measurement": "expression of lysyl oxidase family members", "setting": "[1]; KPC cancer cells, 50 nM gemcitabine for 48 hours", "result": "not observed"}]}]}
